Like-named read-outs stand apart in the source and are kept apart here.
How the values were obtained:
[1] = system: M. tuberculosis alone or macrophages infected by M. tuberculosis; experiment: Potentiation of ethionamide cell test (High Content Screening); type: cell-based; details: ligand concentration potentiating ten times the activity of ethionamide, ethionamide constant at 0.1 μg/mL (1/10th of its CMI99)
EthR protein = EthR protein (Mycobacterium tuberculosis, UniProt P9WMC1); experiment: TSA test (Thermal Shift Assay), fluorescence with Sypro Orange; type: binding, M. tuberculosis; details: melting temperature shift of EthR with ligand vs protein alone
Chain of EthR protein (P9WMC1 whole entry, looked up): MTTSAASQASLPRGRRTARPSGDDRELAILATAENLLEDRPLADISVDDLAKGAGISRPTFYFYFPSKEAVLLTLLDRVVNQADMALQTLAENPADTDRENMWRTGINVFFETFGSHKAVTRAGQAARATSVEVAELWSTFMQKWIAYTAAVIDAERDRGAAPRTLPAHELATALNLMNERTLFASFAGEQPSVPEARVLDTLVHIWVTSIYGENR

CC(C)CCNS(=O)(=O)c1ccc(-c2csc(CC#N)n2)cc1 [Compound 17, 4-(2-(cyanomethyl)thiazol-4-yl)-N-isopentyl benzene sulfonamide] gave an EC50 ([1]; read-out: EC50) of 7900 nM and a ΔTm (EthR protein) of 5.3 °C.

In the case of CC(C)CCNS(=O)(=O)c1ccc(-c2csc(CC(N)=O)n2)cc1 [Compound 21, 2-(4-(4-(N-isopentylsulfamoyl)phenyl)thiazol-2-yl)acetamide], the EC50 ([1]; read-out: EC50) is reported as 5000 nM and the ΔTm (EthR protein) is reported as 4.6 °C.

With Cc1nc(-c2ccc(S(=O)(=O)NCCC(C)(C)C)cc2)cs1 [Compound 23, N-(3,3-dimethylbutyl)-4-(2-methylthiazol-4-yl)benzene sulfonamide] the EC50 ([1]; read-out: EC50) was > 20000 nM and the ΔTm (EthR protein) was 2.3 °C.

Cc1nc(-c2ccc(S(=O)(=O)NCC(F)(F)C(F)(F)F)cc2)cs1 [Compound 25, 4-(2-methylthiazol-4-yl)-N-(2,2,3,3,3-pentafluoropropyl)benzene sulfonamide] was tested, and the EC50 ([1]; read-out: EC50) was > 20000 nM and the ΔTm (EthR protein) was 8.6 °C.

Cc1nc(-c2ccc(S(=O)(=O)NCC(F)(F)F)cc2)cs1 [Compound 26, 4-(2-methylthiazol-4-yl)-N-(2,2,2-trifluoroethyl)benzene sulfonamide] gave an EC50 ([1]; read-out: EC50) of 7900 nM and a ΔTm (EthR protein) of 6.3 °C.

For Cc1nc(-c2ccc(S(=O)(=O)NCCCC(F)(F)F)cc2)cs1 [Compound 27, 4-(2-methylthiazol-4-yl)-N-(4,4,4-trifluorobutyl)benzene sulfonamide], the EC50 ([1]; read-out: EC50) was > 2500 nM and the ΔTm (EthR protein) was 6.6 °C.

For Cc1nc(-c2ccc(S(=O)(=O)NCC(F)(F)C(F)(F)C(F)(F)F)cc2)cs1 [Compound 28, N-(2,2,3,3,4,4,4-heptafluorobutyl)-4-(2-methylthiazol-4-yl)benzene sulfonamide], the EC50 [1] was > 2500 nM and the ΔTm (EthR protein) was 7.3 °C.

COC(=O)Cc1nc(-c2ccc(S(=O)(=O)NCCC(F)(F)F)cc2)cs1 [Compound 33, 2-(4-(4-(N-(3,3,3-trifluoropropyl)sulfamoyl)phenyl)thiazol-2-yl)methyl acetate] was tested, and the EC50 ([1]; read-out: EC50) was 860 nM and the ΔTm (EthR protein) was 9.5 °C.

For CCOC(=O)Cc1nc(-c2ccc(S(=O)(=O)NCCC(F)(F)F)cc2)cs1 [Compound 34], the EC50 ([1]; read-out: EC50) was 150 nM and the ΔTm (EthR protein) was 0.15 °C.

CC(C)NC(=O)Cc1nc(-c2ccc(S(=O)(=O)NCCC(F)(F)F)cc2)cs1 [Compound 36, N-isopropyl-2-(4-(4-(N-(3,3,3-trifluoropropyl)sulfamoyl)phenyl)thiazol-2-yl)acetamide] gave an EC50 ([1]; read-out: EC50) of 210 nM.

CC(C)(C)S(=O)(=O)Cc1nc(-c2ccc(S(=O)(=O)NCCC(F)(F)F)cc2)cs1 [Compound 39, 4-(2-(tert-butylsulfonylmethyl)thiazol-4-yl)-N-(3,3,3-trifluoropropyl)-benzene sulfonamide] showed an EC50 ([1]; read-out: EC50) of 200 nM and a ΔTm (EthR protein) of 7.3 °C.

Work on Cc1csc(-c2ccc(S(=O)(=O)NCCC(F)(F)F)cc2)n1 [Compound 41, 4-(4-methylthiazol-2-yl)-N-(3,3,3-trifluoropropyl)benzene sulfonamide] yielded an EC50 ([1]; read-out: EC50) of 660 nM and a ΔTm (EthR protein) of 6.8 °C.

Compound O=S(=O)(NCCC(F)(F)F)c1ccc(-c2nc3ccccc3s2)cc1 [Compound 42, 4-(benzo[d]thiazol-2-yl)-N-(3,3,3-trifluoropropyl)benzene sulfonamide] has an EC50 ([1]; read-out: EC50) of 300 nM.

In the case of CC(C)CCCc1nc(-c2ccc(C(=O)NCCC(F)(F)F)cc2)cs1 [Compound 47, 4-(2-(4-methylpentyl)thiazol-4-yl)-N-(3,3,3-trifluoropropyl)benzamide], the EC50 ([1]; read-out: EC50) is reported as 30 nM and the ΔTm (EthR protein) is reported as 13.0 °C.

CC(C)(C)S(=O)(=O)Cc1nc(-c2ccc(C(=O)NCCC(F)(F)F)cc2)cs1 [Compound 50, 4-(2-(tert-butylsulfonylmethyl)thiazol-4-yl)-N-(3,3,3-trifluoropropyl)-benzamide] gave an EC50 ([1]; read-out: EC50) of 41 nM and a ΔTm (EthR protein) of 9.6 °C.

With CCOC(=O)Cc1nc(-c2ccc(C(=O)NCCC(F)(F)F)cc2)cs1 [Compound 52] the EC50 ([1]; read-out: EC50) was 190 nM and the ΔTm (EthR protein) was 10.1 °C.

With CC(C)OC(=O)Cc1nc(-c2ccc(C(=O)NCCC(F)(F)F)cc2)cs1 [Compound 53, 2-(4-(4-(3,3,3-trifluoropropylcarbamoyl)phenyl)thiazol-2-yl(isopropyl acetate] the EC50 ([1]; read-out: EC50) was 330 nM and the ΔTm (EthR protein) was 13.2 °C.

With CCOC(=O)c1nc(-c2ccc(C(=O)NCCC(F)(F)F)cc2)cs1 [Compound 54, 4-(4-(3,3,3-trifluoropropylcarbamoyl)phenyl)thiazole-2-ethyl carboxylate] the EC50 ([1]; read-out: EC50) was > 2500 nM and the ΔTm (EthR protein) was 9.6 °C.

CC(C)OC(=O)c1nc(-c2ccc(C(=O)NCCC(F)(F)F)cc2)cs1 [Compound 55, 4-(4-(3,3,3-trifluoropropylcarbamoyl)phenyl)thiazole-2-isopropyl carboxylate] gave an EC50 ([1]; read-out: EC50) of 730 nM and a ΔTm (EthR protein) of 8.2 °C.

O=C(NCCC(F)(F)F)c1ccc(-c2cscn2)cc1 [Compound 56, 4-(thiazol-4-yl)-N-(3,3,3-trifluoropropyl)benzamide] was tested, and the EC50 ([1]; read-out: EC50) was 360 nM and the ΔTm (EthR protein) was 8.1 °C.

Cc1nc(-c2ccc(C(=O)NCCC(F)(F)F)cc2)c(F)s1 [Compound 62, 4-(5-fluoro-2-mthylthiazol-4-yl)-N-(3,3,3-trifluoropropyl)benzamide] was tested, and the EC50 ([1]; read-out: EC50) was 55 nM.

Work on Cc1nc(-c2ccc(C(=O)NCCC(F)(F)F)cc2)c(Cl)s1 [Compound 64, 4-(5-chloro-2-methylthiazol-4-yl)-N-(3,3,3-trifluoropropyl)benzamide] yielded an EC50 ([1]; read-out: EC50) of 350 nM and a ΔTm (EthR protein) of 8.7 °C.

For Cc1nc(-c2ccc(C(=O)NCCC(F)(F)F)nc2)cs1 [Compound 67, 5-(2-methylthiazol-4-yl)-N-(3,3,3-trifluoropropyl)picolinamide], the EC50 ([1]; read-out: EC50) was 120 nM.

For Cc1nc(-c2ccc(C(=O)NCCC(F)(F)F)cn2)cs1 [Compound 71, 6-(2-methylthiazol-4-yl)-N-(3,3,3-trifluoropropyl)nicotinamide], the EC50 ([1]; read-out: EC50) was 1700 nM.

Work on Cc1nc(-c2ccc(C(=O)NCCC(F)(F)F)cc2)co1 [Compound 72, 4-(2-methyloxazol-4-yl)-N-(3,3,3-trifluoropropyl)benzamide] yielded an EC50 ([1]; read-out: EC50) of 180 nM.

In the case of Cc1nc(-c2ccc(C(=O)NCCC(F)(F)F)cc2)no1 [Compound 75, 4-(5-methyl-1,2,4-oxadiazol-3-yl)-N-(3,3,3-trifluoropropyl)benzamide], the EC50 ([1]; read-out: EC50) is reported as 62 nM.

With Cc1noc(-c2ccc(C(=O)NCCC(F)(F)F)cc2)n1 [Compound 78, 4-(3-methyl-1,2,4-oxadiazol-5-yl)-N-(3,3,3-trifluoropropyl)benzamide] the EC50 ([1]; read-out: EC50) was 210 nM.

Cc1nnc(-c2ccc(C(=O)NCCC(F)(F)F)cc2)o1 [Compound 80, 4-(5-methyl-1,3,4-oxadiazol-2-yl)-N-(3,3,3-trifluoropropyl)benzamide] gave an EC50 ([1]; read-out: EC50) of 960 nM.

In the case of Cc1nnc(-c2ccc(C(=O)NCCC(F)(F)F)cc2)s1 [Compound 83, 4-(5-methyl-1,3,4-thiadiazol-2-yl)-N-(3,3,3-trifluoropropyl)benzamide], the EC50 ([1]; read-out: EC50) is reported as 1400 nM.

Work on O=C(NCCC(F)(F)F)c1ccc(-c2nsc(CO)n2)cc1 [Compound 90, 4-(5-(hydroxymethyl)-1,2,4-thiadiazol-3-yl)-N-(3,3,3-trifluoropropyl)-benzamide] yielded an EC50 ([1]; read-out: EC50) of 130 nM.

In the case of [N-]=[N+]=Nc1ccc(C(=O)NCCC(F)(F)F)cc1 [Compound 92, 4-azido-N-(3,3,3-trifluoropropyl)benzamide], the EC50 ([1]; read-out: EC50) is reported as 1100 nM and the ΔTm (EthR protein) is reported as 6.0 °C.

For CC(C)CCc1cn(-c2ccc(C(=O)NCCC(F)(F)F)cc2)nn1 [Compound 93, 4-(4-isopentyl-1H-1,2,3-triazol-1-yl)-N-(3,3,3-trifluoropropyl)benzamide], the EC50 ([1]; read-out: EC50) was > 10000 nM and the ΔTm (EthR protein) was 3.8 °C.

CC(C)Cc1cn(-c2ccc(C(=O)NCCC(F)(F)F)cc2)nn1 [Compound 94, 4-(4-isobutyl-1H-1,2,3-triazol-1-yl)-N-(3,3,3-trifluoropropyl)benzamide] showed an EC50 ([1]; read-out: EC50) of 1200 nM and a ΔTm (EthR protein) of 4.1 °C.

For O=C(NCCC(F)(F)F)c1ccc(-n2cc(C3CC3)nn2)cc1 [Compound 95, 4-(4-cyclopropyl-1H-1,2,3-triazol-1-yl)-N-(3,3,3-trifluoropropyl)-benzamide], the EC50 ([1]; read-out: EC50) was 1700 nM and the ΔTm (EthR protein) was 3.5 °C.

O=C(NCCC(F)(F)F)c1ccc(-n2cc(CCO)nn2)cc1 [Compound 97, 4-(4-(2-hydroxyethyl)-1H-1,2,3-triazol-1-yl)-N-(3,3,3-trifluoropropyl)-benzamide] showed an EC50 ([1]; read-out: EC50) of 2000 nM and a ΔTm (EthR protein) of 1.2 °C.

Work on CCCS(=O)(=O)NCc1nc(-c2ccc(C(=O)NCCC(F)(F)F)cc2)cs1 [Compound 103, 4-(2-(propylsulfonamidomethyl)thiazol-4-yl)-N-(3,3,3-trifluoropropyl)benzamide] yielded an EC50 ([1]; read-out: EC50) of 320 nM and a ΔTm (EthR protein) of 6.6 °C.

Work on O=C(NCCC(F)(F)F)c1ccc(-c2csc(CNS(=O)(=O)c3ccccc3)n2)cc1 [Compound 104, 4-(2-(phenylsulfonamidomethyl)thiazol-4-yl)-N-(3,3,3-trifluoro-propyl)benzamide] yielded an EC50 ([1]; read-out: EC50) of 150 nM and a ΔTm (EthR protein) of 1.2 °C.

For O=S(=O)(NCC#Cc1ccc(S(=O)(=O)NCCC(F)(F)F)cc1)c1ccccc1 [Compound 106, 4-(3-(phenylsulfonamido)prop-1-ynyl)-N-(3,3,3-trifluoropropyl)-benzene sulfonamide], the EC50 ([1]; read-out: EC50) was 1800 nM and the ΔTm (EthR protein) was 3.3 °C.

In the case of CS(=O)(=O)NCC#Cc1ccc(S(=O)(=O)NCCC(F)(F)F)cc1 [Compound 108, 4-(3-(methylsulfonamido)prop-1-ynyl)-N-(3,3,3-trifluoropropyl)-benzene sulfonamide], the EC50 ([1]; read-out: EC50) is reported as > 10000 nM and the ΔTm (EthR protein) is reported as 1.4 °C.

O=C(NCCC(F)(F)F)c1ccc(C#CCNS(=O)(=O)c2ccccc2)cc1 [Compound 112, 4-(3-(phenylsulfonamido)prop-1-ynyl)-N-(3,3,3-trifluoropropyl)-benzamide] was tested, and the EC50 ([1]; read-out: EC50) was 230 nM and the ΔTm (EthR protein) was 4.2 °C.

Reference: patent US9920042B2, “Compounds for use in the treatment of mycobacterial infections” (Universite de Droit et de la Sante de Lille 2, priority 2012, dated 2018)
